Key:
Assay type in all cases: cell-based
E. coli 1924 = test: Broth microdilution MIC (strain enzymes: TEM-12)
E. coli 2150 = test: Broth microdilution MIC (strain enzymes: SHV-3, TEM-1)
E. coli 3327 = test: Broth microdilution MIC (strain enzymes: TEM-1, SHV-12)
E. coli BAS 1 = test: Broth microdilution MIC (strain enzymes: none detected)
E. coli ESBL 2 = test: Broth microdilution MIC (strain enzymes: TEM-1)
E. coli ESBL 5 = test: Broth microdilution MIC (strain enzymes: CTX-M15, TEM-1)
E. coli SI-M004 = test: Broth microdilution MIC (strain enzymes: SHV-2, GES-12)
E. coli SI-PBLII = test: Broth microdilution MIC (strain enzymes: CTX-M2, TEM-1)
K. oxytoca 169219 = test: Broth microdilution MIC (strain enzymes: TEM-1, CTXM-15)
K. oxytoca 176877 = test: Broth microdilution MIC (strain enzymes: SHV-105)
K. oxytoca 496 #2 = test: Broth microdilution MIC (strain enzymes: SHV-105, TEM-1)
K. pneumoniae 153239 = test: Broth microdilution MIC (strain enzymes: SHV-11, TEM-1)
K. pneumoniae 304487 = test: Broth microdilution MIC (strain enzymes: SHV-12,TEM-1)
K. pneumoniae 319478 = test: Broth microdilution MIC (strain enzymes: SHV-12, CTX-M3 and TEM-1)
K. pneumoniae 329633 = test: Broth microdilution MIC (strain enzymes: SHV-5, TEM-1)
K. pneumoniae ESBL 10 = test: Broth microdilution MIC (strain enzymes: SHV-12, TEM-1)
K. pneumoniae ESBL 8 #2 = test: as above
K. pneumoniae ESBL 7 #2 = test: Broth microdilution MIC (strain enzymes: SHV-12, CTX-M15, TEM-1)
K. pneumoniae KP 3 = test: Broth microdilution MIC (strain enzymes: SHV-1, TEM-1)
K. pneumoniae KP 8 = test: Broth microdilution MIC (strain enzymes: TEM-10, TEM-1, CTX-M15)
K. pneumoniae KPN 508 = test: Broth microdilution MIC (strain enzymes: SHV-7, TEM-1)
K. pneumoniae BAA 1705 = test: Broth microdilution MIC (strain KPC-producing)
[1] = Klebsiella pneumoniae, alone, read-out: MIC of ceftibuten (CTB)

## Nc1nc(/C(=C/CC(=O)O)C(=O)N[C@@H]2C(=O)N3C(C(=O)O)=CCS[C@H]23)cs1 [Ceftibuten, ceftibuten, reference compound]
E. coli 1924; Escherichia coli, 1924, alone, read-out: MIC of ceftibuten (CTB)
  MIC: 0.5 µg/mL
E. coli 2150; Escherichia coli, 2150, alone, read-out: MIC of ceftibuten (CTB)
  MIC: 0.5 µg/mL
E. coli 3327; Escherichia coli, 3327, alone, read-out: MIC of ceftibuten (CTB)
  MIC: 8 µg/mL
E. coli BAS 1; Escherichia coli, BAS1, alone, read-out: MIC of ceftibuten (CTB)
  MIC: > 32 µg/mL
E. coli ESBL 2; Escherichia coli, ESBL2, alone, read-out: MIC of ceftibuten (CTB)
  MIC: 8 µg/mL
E. coli ESBL 5; Escherichia coli, ESBL5, alone, read-out: MIC of ceftibuten (CTB)
  MIC: > 32 µg/mL
E. coli SI-M004; Escherichia coli, SIM004, alone, read-out: MIC of ceftibuten (CTB)
  MIC: 32 µg/mL
E. coli SI-PBLII; Escherichia coli, alone, read-out: MIC of ceftibuten (CTB)
  MIC: 0.5 µg/mL
K. oxytoca 169219; Klebsiella oxytoca, 169219, alone, read-out: MIC of ceftibuten (CTB)
  MIC: 4 µg/mL
K. oxytoca 176877; Klebsiella oxytoca, 176877, alone, read-out: MIC of ceftibuten (CTB)
  MIC: 4 µg/mL
K. oxytoca 496 #2; Klebsiella oxytoca, alone, read-out: MIC of ceftibuten (CTB)
  MIC: 8 µg/mL
K. pneumoniae 153239; Klebsiella pneumoniae, 153239, alone, read-out: MIC of ceftibuten (CTB)
  MIC: 0.25 µg/mL
K. pneumoniae 304487; Klebsiella pneumoniae, 304487, alone, read-out: MIC of ceftibuten (CTB)
  MIC: 8 µg/mL
K. pneumoniae 319478; Klebsiella pneumoniae, 319478, alone, read-out: MIC of ceftibuten (CTB)
  MIC: > 32 µg/mL
K. pneumoniae 329633; Klebsiella pneumoniae, 329633, alone, read-out: MIC of ceftibuten (CTB)
  MIC: 16 µg/mL
K. pneumoniae ESBL 10; Klebsiella pneumoniae, ESBL10, alone, read-out: MIC of ceftibuten (CTB)
  MIC: 16 µg/mL
K. pneumoniae ESBL 8 #2; [1]
  MIC: 16 µg/mL
K. pneumoniae ESBL 7 #2; [1]
  MIC: > 32 µg/mL
K. pneumoniae KP 3; Klebsiella pneumoniae, KP3, alone, read-out: MIC of ceftibuten (CTB)
  MIC: 2 µg/mL
K. pneumoniae KP 8; Klebsiella pneumoniae, KP8, alone, read-out: MIC of ceftibuten (CTB)
  MIC: 0.25 µg/mL
K. pneumoniae KPN 508; Klebsiella pneumoniae, KPN508, alone, read-out: MIC of ceftibuten (CTB)
  MIC: 32 µg/mL
K. pneumoniae BAA 1705; Klebsiella pneumoniae, BAA1705, alone, read-out: MIC of ceftibuten (CTB)
  MIC: 32 µg/mL

## O=C(O)[C@H]1/C(=C/CO)O[C@@H]2CC(=O)N21 [Clavulanic acid, clavulanic acid, reference compound]
E. coli 1924; with inhibitor at 4 μg/mL
  MIC of cefalexin (LEX): 0.5 µg/mL
  MIC of cefdinir (CDR): 0.5 µg/mL
  MIC of cefixime (CFM): 1 µg/mL
  MIC of ceftibuten (CTB): 0.5 µg/mL
E. coli 2150; with inhibitor at 4 μg/mL
  MIC of cefalexin (LEX): 0.5 µg/mL
  MIC of cefdinir (CDR): 0.5 µg/mL
  MIC of cefixime (CFM): 1 µg/mL
  MIC of ceftibuten (CTB): 0.5 µg/mL
E. coli 3327; with inhibitor at 4 μg/mL
  MIC of cefalexin (LEX): 0.5 µg/mL
  MIC of cefdinir (CDR): 0.5 µg/mL
  MIC of cefixime (CFM): 2 µg/mL
  MIC of ceftibuten (CTB): 1 µg/mL
E. coli BAS 1; with inhibitor at 4 μg/mL
  MIC of cefalexin (LEX): 16 µg/mL
  MIC of cefdinir (CDR): 16 µg/mL
  MIC of cefixime (CFM): >32 µg/mL
  MIC of ceftibuten (CTB): >32 µg/mL
E. coli ESBL 2; with inhibitor at 4 μg/mL
  MIC of cefalexin (LEX): >32 µg/mL
  MIC of cefdinir (CDR): >32 µg/mL
  MIC of cefixime (CFM): 32 µg/mL
  MIC of ceftibuten (CTB): 4 µg/mL
E. coli ESBL 5; with inhibitor at 4 μg/mL
  MIC of cefalexin (LEX): 1 µg/mL
  MIC of cefdinir (CDR): 1 µg/mL
  MIC of cefixime (CFM): 1 µg/mL
  MIC of ceftibuten (CTB): 0.5 µg/mL
E. coli SI-M004; with inhibitor at 4 μg/mL
  MIC of cefalexin (LEX): 0.5 µg/mL
  MIC of cefdinir (CDR): 0.5 µg/mL
  MIC of cefixime (CFM): 1 µg/mL
  MIC of ceftibuten (CTB): 0.5 µg/mL
E. coli SI-PBLII; with inhibitor at 4 μg/mL
  MIC of cefalexin (LEX): 0.5 µg/mL
  MIC of cefdinir (CDR): 0.5 µg/mL
  MIC of cefixime (CFM): 1 µg/mL
  MIC of ceftibuten (CTB): 0.5 µg/mL
K. oxytoca 169219; with inhibitor at 4 μg/mL
  MIC of cefalexin (LEX): 0.25 µg/mL
  MIC of cefdinir (CDR): 0.25 µg/mL
  MIC of cefixime (CFM): 0.125 µg/mL
  MIC of ceftibuten (CTB): 0.0149 µg/mL
K. oxytoca 176877; with inhibitor at 4 μg/mL
  MIC of cefalexin (LEX): 2 µg/mL
  MIC of cefdinir (CDR): 2 µg/mL
  MIC of cefixime (CFM): 0.25 µg/mL
  MIC of ceftibuten (CTB): 0.125 µg/mL
K. oxytoca 496 #2; with inhibitor at 4 μg/mL
  MIC of cefalexin (LEX): 0.06 µg/mL
  MIC of cefdinir (CDR): 0.06 µg/mL
  MIC of cefixime (CFM): 0.03 µg/mL
  MIC of ceftibuten (CTB): 0.125 µg/mL
K. pneumoniae 153239; with inhibitor at 4 μg/mL
  MIC of cefalexin (LEX): 0.25 µg/mL
  MIC of cefdinir (CDR): 0.25 µg/mL
  MIC of cefixime (CFM): 0.25 µg/mL
  MIC of ceftibuten (CTB): 0.06 µg/mL
K. pneumoniae 304487; with inhibitor at 4 μg/mL
  MIC of cefalexin (LEX): 0.5 µg/mL
  MIC of cefdinir (CDR): 0.5 µg/mL
  MIC of cefixime (CFM): 0.25 µg/mL
  MIC of ceftibuten (CTB): 0.125 µg/mL
K. pneumoniae 319478; with inhibitor at 4 μg/mL
  MIC of cefalexin (LEX): 0.5 µg/mL
  MIC of cefdinir (CDR): 0.5 µg/mL
  MIC of cefixime (CFM): 0.5 µg/mL
  MIC of ceftibuten (CTB): 0.06 µg/mL
K. pneumoniae 329633; with inhibitor at 4 μg/mL
  MIC of cefalexin (LEX): 0.25 µg/mL
  MIC of cefdinir (CDR): 0.25 µg/mL
  MIC of cefixime (CFM): 0.03 µg/mL
  MIC of ceftibuten (CTB): 0.03 µg/mL
K. pneumoniae ESBL 10; with inhibitor at 4 μg/mL
  MIC of cefalexin (LEX): 0.5 µg/mL
  MIC of cefdinir (CDR): 0.5 µg/mL
  MIC of cefixime (CFM): 0.125 µg/mL
  MIC of ceftibuten (CTB): 0.125 µg/mL
K. pneumoniae ESBL 8 #2; with inhibitor at 4 μg/mL
  MIC of cefalexin (LEX): 0.125 µg/mL
  MIC of cefdinir (CDR): 0.125 µg/mL
  MIC of cefixime (CFM): 0.03 µg/mL
  MIC of ceftibuten (CTB): 0.06 µg/mL
K. pneumoniae ESBL 7 #2; with inhibitor at 4 μg/mL
  MIC of cefalexin (LEX): >32 µg/mL
  MIC of cefdinir (CDR): >32 µg/mL
  MIC of cefixime (CFM): >32 µg/mL
  MIC of ceftibuten (CTB): >32 µg/mL
K. pneumoniae KP 3; with inhibitor at 4 μg/mL
  MIC of cefalexin (LEX): 1 µg/mL
  MIC of cefdinir (CDR): 1 µg/mL
  MIC of cefixime (CFM): 0.5 µg/mL
  MIC of ceftibuten (CTB): 0.125 µg/mL
K. pneumoniae KP 8; with inhibitor at 4 μg/mL
  MIC of cefalexin (LEX): 0.125 µg/mL
  MIC of cefdinir (CDR): 0.125 µg/mL
  MIC of cefixime (CFM): 0.06 µg/mL
  MIC of ceftibuten (CTB): 0.06 µg/mL
K. pneumoniae KPN 508; with inhibitor at 4 μg/mL
  MIC of cefalexin (LEX): 0.125 µg/mL
  MIC of cefdinir (CDR): 0.125 µg/mL
  MIC of cefixime (CFM): 0.25 µg/mL
  MIC of ceftibuten (CTB): 0.06 µg/mL
K. pneumoniae BAA 1705; with inhibitor at 4 μg/mL
  MIC of cefalexin (LEX): >32 µg/mL
  MIC of cefdinir (CDR): >32 µg/mL
  MIC of cefixime (CFM): >32 µg/mL
  MIC of ceftibuten (CTB): 8 µg/mL
